Measured values taken from patent US8476198B2, “Fungicidal composition” (Valent BioSciences Corporation, priority 2009, dated 2013).
Counter-ions that a name gives are not always drawn.

Experiments:
cotton seedlings = assay: Pouch assay: main root length of cotton seedlings from treated seeds; type: in vivo; details: for Root Length (cm): 6 day-old cotton seedlings
Description: Seeds of cotton were treated with PESA salt and/or triadimenol (BAYTAN® 30 Flowable Fungicide, Bayer Crop Science, RTP, NC USA). These were assayed in the pouch assay as described above.

[1] = tested on: Fusarium solani f. sp. pisi; assay: Seed treatment effect against Fusarium solani f. sp. pisi (Fusarium root rot of pea); type: in vivo, Fusarium solani f. sp. pisi on pea; details: 16 days
Description: Seed treatment effect against Fusarium solani f. sp. pisi (Fusarium root rot of pea)
PESA and metconazole were diluted with DMSO respectively and mixed with each other to obtain the desired material mixture. Then, this suspension was applied to pea seeds. The PESA solution and the metconazole solution were applied to seeds respectively for control, and DMSO for untreated control. The seeds were dried and planted in soil that was inoculated with Fusarium solani f. sp. pisi. After growing at 20-24° C. in a greenhouse, for 16 days, symptoms were investigated and the frequency of disease and % control were calculated. The fungicide interactions in the combinations are calculated according to […] formula: E=X+Y−(X*Y)/100 • X=% action by active ingredient A using P ppm of active ingredient • Y=% action by active ingredient B using Q ppm of active ingredient • E=expected % action by active ingredients A and B using P and Q ppm of active ingredients If the action actually observed (O) is greater than the expected action (E), than the action of the combination is super-additive, i.e. there is a synergistic effect. In mathematical terms, synergism corresponds to a value of more than 100 for the ratio of O/E, said ratio O/E of less than 100 signals a loss of activity compared to the expected activity. Synergy Effect=(Observed/Expected)*100

O=C(O)CCC(=O)NCCc1ccccc1 [PESA salt]
Root Length (cm) (cotton seedlings; 25 g ai PESA salt/100 lbs. of seed, triadimenol 0): 14.8 cm | Root Length (cm) (cotton seedlings; 50 g ai PESA salt/100 lbs. of seed, triadimenol 0): 14.3 cm | Effect of adding PESA salt on the fungicide's negative effect on cotton root growth (cotton seedlings; cotton seed treatment, conclusion in words from Table 2): protects or safens cotton from the negative effects of the fungicide on root growth

CC(C)(C)C(O)C(Oc1ccc(Cl)cc1)n1cncn1 (stereo not drawn) [Triadimenol, triadimenol, reference compound]
Root Length (cm) (cotton seedlings; triadimenol 28.2 g ai/100 lbs. of seed, 0 g ai PESA salt): 12.8 cm | Root Length (cm) (cotton seedlings; triadimenol 56.4 g ai/100 lbs. of seed, 0 g ai PESA salt): 12.3 cm

CC1(C)CCC(Cc2ccc(Cl)cc2)C1(O)Cn1cncn1 (stereo not drawn) [Metconazole, metconazole, reference compound]
Observed action (% control) ([1]; metconazole 0.2 gai/100 kg seed): 55 % control | Observed action (% control) ([1]; metconazole 1 gai/100 kg seed): 73 % control

O=C(O)CCC(=O)NCCc1ccccc1 [PESA, N-(2-phenylethyl)succinamic acid]
Observed action (% control) ([1]; PESA 2 gai/100 kg seed, inoculated soil): 0 % control | Observed action (% control) ([1]; PESA 10 gai/100 kg seed, inoculated soil): 9 % control
